Values of other authors as cited in patent US20040157932A1, “Supplements and foods comprising oleylethanolamide” (Natural ASA,, priority 2002, published 2004).

Columns and labels:
[1] = tested on: cannabinoid receptors
[2] = rats
[3] = tested on: human melanoma, colorectal and breast cancer cells; conditions: in vitro
[4] = CLA in animal feed, birds and mammals
[5] = tested on: CD-4 and CD-8 lymphocyte subpopulations; white blood cells
[6] = diet with 0.5 percent CLA
[7] = tested on: rat mammary tumorigenesis; conditions: administration of CLA
[8] = tested on: FAAH

In the case of `CCCCCCCC/C=C\CCCCCCCC(=O)NCCO` [OEA, oleylethanolamide], the “activation of cannabinoid receptors” value [1] is given as “does not activate”, the desire for food ([2]; OEA in diet) is given as “reduced desire for food” and the weight gain ([2]; OEA in diet) is given as “decreased weight gain”. The “effect on the nervous system” value ([2]; in contrast to currently available weight loss drugs) was “not effecting the nervous system”.

For conjugated linoleic acid [CLA], the “cytotoxicity against human melanoma, colorectal and breast cancer cells” value [3] is given as “strong cytotoxic agent”, the “efficiency of feed conversion” value [4] is given as “increased the efficiency of feed conversion” and the “preserving white blood cells” value ([5]; CLA in concentrations of about 0.1 to 1.0 percent) is given as “effective adjuvant”. For the same compound, the “CD-4 and CD-8 lymphocyte subpopulations” value ([5]; oral or parenteral administration, free acid or salt form) was “elevation”, the body weight [6] was “no increase” and the fat content ([6]; pigs, mice, humans) was “significant drop”. The protein mass ([6]; pigs, mice, humans) was “concomitant increase” and the rat mammary tumorigenesis [7] was “inhibits”.

In the case of `CCCCCCC(C)OC(=O)CC(=O)CBr` (stereo not shown) [2-octyl y-gamma.-bromoacetoacetate], the FAAH inhibition [8] is given as “potent”.
